Laboratory results: patent US8299049B2, “Compositions comprising an extract of Tiarella polyphylla or compounds isolated therefrom for preventing and treating cancer diseases” (Korea Institute of Bioscience and Biotechnology, priority 2007, dated 2012)

How the values were obtained:
[1] = system: SNU449T16 cells introduced with GFP control, wild-type FAK, paxillin or p130Cas cDNA; test: TA-mediated effects under overexpression of focal adhesion molecules; type: cell-based
Experimental: (§1) Whole cell lysates from cells under diverse experimental conditions were prepared, as described in the literature (Lee, S. Y. et al., Focal adhesion and actin organization by a cross-talk of TM4SF5 with integrin α2 are regulated by serum treatment, Exp Cell Res, 312, pp. 2983-99, 2006). For example, cells were subjected to electroporation (950 μF, 250 V) with a control GFP, wild-type focal adhesion kinase (FAK), paxillin, p130Cas cDNA. One day after electroporation, cells were treated with TA (20 μM) for the indicated periods. Cells cultured normally or treated with TA at different concentrations for the indicated periods were harvested using RIPA buffer. Control or tumor tissues from nude mice were frozen immediately after surgery using liquid N2. Tissues in the liquid N2 was homogenized using a mortar and pestle, and extracted using 0.1% SDS containing RIPA buffer. Standard Western blots of lysates were performed by using antibody against phospho-Y^397, Y^407, Y^577, Y^861, Y^925 FAK (BioSource International, Inc., Camarillo, Calif.), phospho-Y^416Src, c-Src, p15^INK4B, p16^INK4A (Santa Cruz Biotech., Santa Cruz, Calif.), FAK, p130Cas, paxillin, pY^118paxillin, active caspase-3 (BD Transduct. Lab., San Jose, Calif.), α-tubulin (Sigma, St Louis, Mo.), phopsho-S^473, or T^308Akt, Akt, phospho-Erk1/2, Erk1/2 (Cell Signaling Tech., Danvers, Mass.), and TM4SF5 (homemade).
To evaluate whether overexpression of focal adhesion molecules such as focal adhesion kinase (FAK), paxillin, and p130Cas would block the effects of TA treatment, the following procedure was performed as described in the literature (Lee, S. Y. et al., Focal adhesion and actin organization by a cross-talk of TM4SF5 with integrin α2 are regulated by serum treatment, Exp Cell Res, 312, pp. 2983-99, 2006).
To explore this, each cDNA was introduced into SNU449T16 cells via electroporation. After 1 day, the cells were treated with 20 μM TA for 24 hrs to obtain lysates. […] Therefore, the TA-mediated effects on TM4SF5-expressing cells could be overcome to a certain degree by overexpression of focal adhesion molecules. On the other hand, changes in Erk1/2 activation were not observed under each experimental condition, thereby understanding TA-mediated effects on signal transduction in this experimental system.

[2] = system: focal adhesion molecules in SNU449Cp cells expressing no TM4SF5; test: Immunoblot of focal adhesion molecule expression and activation, SNU449Cp; type: cell-based
Experimental: as §1, with “(homemade). […]” for “(homemade).”

[3] = system: focal adhesion kinase (FAK), paxillin, p130Cas in TM4SF5-expressing SNU449T16 cells; test: Immunoblot of focal adhesion molecule expression and activation, SNU449T16; type: cell-based
Experimental: as §1
To examine which signaling molecule is affected by tiarellic acid (TA), the following procedure was performed, as described in the literature (Lee, S. Y. et al., Focal adhesion and actin organization by a cross-talk of TM4SF5 with integrin α2 are regulated by serum treatment, Exp Cell Res, 312, pp. 2983-99, 2006).
The SNU449 cell lines were treated with tiarellic acid (TA) in a dose- (0, 1, 5, 20 μM) and time-dependent (0, 8, 16, 24, 36 hrs) manner.
The SNU449Cp and SNU449T16 cell lines were treated with tiarellic acid (TA) at varying concentrations (0, 1, 5, 20 μM) for 24 hrs, and then immunoblot assay was performed.

[4] = system: SNU449Tp cells expressing TM4SF5; test: Number of floating cells, SNU449Tp; type: cell-based; conditions: TA versus DMSO
From the text: FIG. 17 is a graph showing the number of floating SNU449Cp and SNU449Tp cells, after tiarellic acid (TA) treatment for various time periods;

[5] = system: focal adhesion molecules in cells that express endogenous TM4SF5; test: Focal adhesion molecule activation in cells endogenously expressing TM4SF5; type: cell-based; conditions: FIG. 12
Experimental: as §1

[6] = system: TM4SF5-expressing cells (SNU449Tp, SNU449T16); test: Degree of adhesion on fibronectin-precoated dishes, TM4SF5-expressing cells; type: cell-based; conditions: 20 μM TA 24 hr, reseeded on fibronectin 1 hr
Experimental: Thus, it could be thought that TA treatment induces anoikis of TM4SF5-expressing cells. To examine whether TA treatment affected cellular adhesion, the following procedure was performed prior to analysis of TA-meditated cell death, as described in the literature (Yang, X. et al., Palmitoylation supports assembly and function of integrin-tetraspanin complexes, J Cell Biol, 167, pp. 1231-40, 2004).
Cells were treated with 20 μM TA for 24 hr, and the floating cells were collected and reseeded on fibronectin-precoated dishes for 1 hr before determination of the degree of adhesion.

[7] = system: focal adhesion molecules in cells lacking TM4SF5; test: Focal adhesion molecule activation in TM4SF5-null cell lines; type: cell-based; conditions: FIG. 12
Experimental: as §1

[8] = system: TM4SF5-null cells; test: Immunofluorescence of focal adhesions and actin, TM4SF5-null cells; type: cell-based; conditions: 20 μM TA
Experimental: Cells were treated with DMSO or 20 μM TA for 24 hrs. Then, the cells were plated on 10 μg/ml fibronectin-precoated coverslips and incubated for 2 hrs in the presence of DMSO or 20 μM TA. Subsequently, immunofluorescence staining was performed using pY^397 FAK, pY^118 paxillin, and actin, as described in the literature (Lee, S. Y. et al., Focal adhesion and actin organization by a cross-talk of TM4SF5 with integrin α2 are regulated by serum treatment, Exp Cell Res, 312, pp. 2983-99, 2006). Mounted samples were visualized by a fluorescent microscope (BX51, Olympus, Japan).

[9] = system: TM4SF5 null SNU449Cp cells; test: Inhibitory effect on cell growth, TM4SF5-null control cells; type: cell-based; conditions: 20 μM, 3 days
Experimental: After virus infection, pooled stable clones (control SNU449Cp and TM4SF5-expressing SNU449Tp cell clones) and single cell-driven stable clones (TM4SF5-expressing SNU449T16) were prepared by infecting SNU449 hepatocytes (Korean Cell Bank, Seoul, Korea) with retrovirus for empty pLNCX or pLNCX with TM4SF5. Parental and control cells (Cp) were maintained in RPMI-1640/10% FBS/0.25 μg/ml gentamycin (Calbiochem, San Diego, Calif.) without or with 200 μg/ml G418 (A.G. Scientific Inc., San Diego, Calif.), respectively, at 37° C. and 5% CO2. Cells endogenously expressing TM4SF5 or cells endogenously expressing no TM4SF5 (Korean Cell Bank) were maintained in either DMEM-H or RPMI-1640 media with 10% FBS (JBI Inc., Daegu, Korea).

[10] = system: Akt, p15INK4B, p16INK4A, caspase-3 in TM4SF5-mediated tumor tissue; test: Western blot and immunohistochemical staining of tumor tissue from nude mice; type: in vivo
Experimental: as §1
(§2) 4-5 week old female nude mice (BALB/cAnNCrjBgi-nu) were purchased from Orient. Co. Ltd. (Seongnam, Korea). The mice were housed in a specific pathogen-free room under controlled temperature and humidity. All animal procedures were performed in accordance with the procedures in Seoul National University Laboratory Animal Maintenance Manual and with IRB agreement. Mice aged 5-6 weeks were injected subcutaneously with 5×10^6 viable SNU449Cp or SNU449T16 cells. Tumor volumes were measured with a caliper and calculated using the following Mathematical Formula 1. When the tumor volume reached 200 mm^3, mice were injected intraperitoneally with 3 mg/kg or 30 mg/kg (body weight) of tiarellic acid (TA) every other day for 30 days. (Width×Length^2)/2 [Mathematical Formula 1]
(§3) To evaluate whether tiarellic acid (TA) administration might interfere with TM4SF5 mediated tumor formation in nude mice, the following experiment was performed as described in the literature (Lee S-A et al., TM4SF5-mediated transmodulation between cytosolic p27Kip1 and Rho GTPases and epithelial-mesenchymal transition cause loss of contact inhibition, Cancer Cell, 2007).

[11] = Body weight and toxic side effects in tumor-bearing nude mice; type: in vivo; conditions: 3 or 30 mg/kg i.p. every other day, 30 days
Experimental: as §2, §3

[12] = Western blot, TA administration

## C=C(C)C1CC[C@]2(C)CC[C@]3(C(=O)O)C(CCC4[C@@]5(C)CC[C@H](O)[C@@](C)(CO)C5CC[C@]43C)C12 (stereo partly drawn) [tiarellic acid (TA), 3,23-dihydroxy-20(29)-lupen-27-oic acid]
[1]; SNU449T16 overexpressing focal adhesion molecules
  TA-mediated increases in the sub-G1 population under overexpression: blocked
[1]; SNU449T16 with control plasmid (GFP), 20 μM TA
  focal adhesion molecule and caspase-3 activity: time-dependent inactivation of focal adhesion molecules and activation of caspase-3
[1]; SNU449T16 with wild-type FAK, paxillin, or p130Cas, 20 μM TA
  TA-mediated effects under overexpression: certain degrees of blocking
[1]; each experimental condition
  changes in Erk1/2 activation: not observed
[2]; FIG. 11
  pErk1/2: slightly increased
[2]; TA up to 20 μM, 24 hrs
  FAK and paxillin phosphorylations and p130Cas protein levels: no effect
[3]; FIG. 10, cell line not stated
  p130Cas phosphorylation and physical association among FAK, p130Cas, and paxillin: decreased
[3]; SNU449T16, 20 μM TA, 0, 8, 16, 24, 36 hrs
  FAK and paxillin phosphorylation and p130Cas protein levels over time: remarkably decreased in a time-dependent manner
[3]; SNU449T16, 20 μM TA, 24 hrs
  FAK and paxillin phosphorylations and p130Cas protein levels: reduced
[4]
  number of floating cells: increased
[5]
  inhibitory effects on focal adhesion molecule activation: observed
[6]
  adhesion: significantly reduced adhesions
[7]
  inhibitory effects on focal adhesion molecule activation: not
[8]
  focal adhesion formation: did not affect
[9]
  inhibitory effect on cell growth: not observed
[10]; [12]
  Akt activation in tumor tissue: decreased
  caspase-3 activation in tumor tissue: enhanced
  p15INK4B or p16INK4A CKI levels in tumor tissue: increased
[10]; tumor tissue from TA-treated mice
  immunohistochemical staining for active caspase-3: positive
[11]
  body weight: increased normally
  toxic side effects: no significant toxic side effects
